These results are taken from patent US20230312510A1, “COMPOUNDS AND METHODS FOR TREATING NEURODEGENERATIVE DISEASES” (The McLean Hospital Corporation, priority 2020, published 2023).

The structures appear in SMILES notation.

One series deals with CD-1 mice. Nature of the series: Escalating dose maximum tolerated dose study. The class given is in vivo. The settings on record: oral; for cage side observation, clinical signs: escalating dose from 5 mg/kg. The protocol:
The objective of this study was to evaluate the escalating dose maximum tolerated dose study of compound of Formula (II) and comparative example
in CD-1 mice. Animals were monitored on a daily basis with body weights and clinical signs, and any abnormal observation findings were recorded.

A short description of series [1]: Pharmacokinetic study after single oral administration. In kind it is in vivo, Rat. The settings on record: Sprague-Dawley (SD), plasma, 20 mg/kg; for AUC(0-t): rat, Male SD Rats, PO; for concentration at 0.083 h / concentration at 0.25 h / concentration at 0.5 h / concentration at 1 h / concentration at 2 h / concentration at 4 h / concentration at 8 h / concentration at 24 h: male, Rat, oral, read-out: Plasma Conc. The source says: The objective of this study was to characterize the pharmacokinetics (PK) of compound of Formula (II) in Male SD Rats after single intravenous (IV) and oral (PO) administration. […] Following PO administration with comparative example 2: […]

Series [2] deals with MPTP-induced PD model mice. Nature of the series: Sub-chronic MPTP-induced mice model of PD. The note with it: for body weight recovery / cylinder test, rearing numbers, sub-chronic treatment / pole test, time to traverse, sub-chronic treatment / rotarod latency to fall, sub-chronic treatment: L-DOPA 50, CQ 40, SPV-94 5 mg/kg/day; for TH+ DAergic neurons (counting and densitometry): STR, SNpc and OB; for dyskinesia in the abnormal involuntary movements (AIMs) test: chronic administration; for olfactory discrimination test (olfaction), chronic treatment: day 14; for rotarod latency to fall, chronic treatment: day 15.
Protocol: Sub-chronic MPTP regimen (30 mg/kg/day, 5 days) was introduced.

The next series concerns HeLa cells. Nature of the series: Starvation-induced autophagy in HeLa cells (Western blot of LC3B and p62). The class given is cell-based. The settings on record: EBSS 0-4 hrs, BafA1 10 nM, CQ 20 μM, SPV-94 1 μM. The protocol:
To limit basal autophagy, cells were incubated in fresh growth medium for 1 hr before starvation. Samples were analyzed by Western blot using autophagic flux markers LC3B and p62 (A) and its expression levels were quantified (10B and 10C).

Series [3] relates to mouse bone marrow-derived primary macrophages (mBMMs). As to the kind of experiment: LPS- or poly(I:C)-induced pro-inflammatory gene expression in mBMMs. In kind it is cell-based. The settings on record: CQ 10 μM, SPV-94 1 μM. The source says: (§1) Besides the role as an activator of DAergic genes, Nurr1 is known as a repressor of inflammatory genes in astrocytes and microglia (See Saijo et al., Cell 2009, 137, 47-59).

Series [4] concerns Nurr1-LBD and full-length Nurr1. As to the kind of experiment: Luciferase activity assay (Nurr1 transactivation) in N27-A cells. In kind it is cell-based, murine.
Series [5] deals with N27-A cells. As to the kind of experiment: Starvation-induced autophagy and Nurr1 expression in N27-A cells with or without MPP+. In kind it is cell-based. The note with it: CQ 20 μM, SPV-94 1 μM. The protocol: LC3B, p62 and Nurr1 expression levels determined by Western blot (D) were quantified.
Next, autophagy regulation was assessed in a dopaminergic cell line N27-A in the absence or presence of MPP^+ (1 mM). […] Furthermore, it was observed that MPP disrupted autophagy showing accumulated LC3B-II and remained p62 at the late-stage, which corresponds to the previous studies (See Lim et al., Autophagy 2011, 7, 51-60; Hung et al., PLoS ONE 2014, 9, e91074; Park et al., J Biol Chem 2016, 291, 3531-3540).
Referring to FIGS. 10D-10G, N27-A cells were treated with vehicle or MPP+ (1 mM) for 24 hrs and then changed with fresh growth medium with or without MPP+ 1 hr before starvation. […] To induce autophagy, N27-A cells were incubated in EBSS for 0-4 hrs, in the absence or presence of MPP+. Samples were analyzed by Western blot using autophagic flux markers LC3B and p62 (D) and its expression levels were quantified (10E and 10F). […] (10G) Nurr1 expression level changes were also analyzed and quantified.

Series [6] deals with mouse embryonic ventral mesencephalic (mVM) primary neurons. Nature of the series: Dopaminergic gene expression in mVM primary neurons with or without 6-OHDA. In kind it is cell-based.
Protocol: FIGS. 8A-8D show dopaminergic (DAergic) gene expressions in the absence or presence of 6-OHDA (20 μM) in mouse embryonic ventral mesencephalic (mVM) primary neurons derived from embryonic day 12.5 (E12.5).
The test system of another series is MN9D cells. Nature of the series: Protection against MPP+-induced toxicity in MN9D cells (MTT reduction, LDH release).
The target in series [7] is T1, Nurr1-LBD (Homo sapiens, UniProt P43354). As to the kind of experiment: Radioligand competition binding assay using [3H]-CQ.
Another series relates to BV2 cells. Nature of the series: LPS-induced TNFα mRNA expression in BV2 cells (real-time PCR). In kind it is cell-based, mouse. The note with it: LPS 1 μg/ml, compound 1 μM.
From the text: as §1

Series [8] relates to Nurr1-LBD and full-length Nurr1. Nature of the series: Luciferase activity assay (Nurr1 transactivation) in MN9D cells. The class given is cell-based, murine.
Series [9] concerns N27-A cells. As to the kind of experiment: Protection against MPP+-induced toxicity in N27-A cells (MTT, LDH). The note with it: 1 mM MPP+.
For the next series, the target named is T2, full-length Nurr1 (Homo sapiens, UniProt P43354).
T2 construct: expressed in transfected cells; host or cells: SK-N-BE(2)C human neuroblastoma cells
Nature of the series: Luciferase activity assay (p4xNL3-Luc reporter) with full-length Nurr1 in SK-N-BE(2)C cells. The class given is cell-based. The settings on record: SK-N-BE(2)C cells; read-out: EC50, transcriptional activity of full-length Nurr1.

For series [10], the target named is T1, Nurr1-LBD. Nature of the series: Luciferase activity assay (p4xNL3-Luc reporter) with Nurr1-LBD in SK-N-BE(2)C cells. In kind it is cell-based. More on the design: expressed in transfected cells; host or cells: SK-N-BE(2)C human neuroblastoma cells. The note with it: SK-N-BE(2)C cells; read-out: EC50, transcriptional activity of Nurr1-LBD.

T1 sequence (P43354 360-595 limits assumed): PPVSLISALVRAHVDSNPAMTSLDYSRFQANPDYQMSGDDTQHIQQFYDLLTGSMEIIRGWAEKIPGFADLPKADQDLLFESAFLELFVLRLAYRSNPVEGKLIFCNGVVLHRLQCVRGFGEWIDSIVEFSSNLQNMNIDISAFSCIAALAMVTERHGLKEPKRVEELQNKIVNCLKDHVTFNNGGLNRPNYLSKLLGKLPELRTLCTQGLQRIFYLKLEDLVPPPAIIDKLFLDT
T2 sequence (P43354 whole entry): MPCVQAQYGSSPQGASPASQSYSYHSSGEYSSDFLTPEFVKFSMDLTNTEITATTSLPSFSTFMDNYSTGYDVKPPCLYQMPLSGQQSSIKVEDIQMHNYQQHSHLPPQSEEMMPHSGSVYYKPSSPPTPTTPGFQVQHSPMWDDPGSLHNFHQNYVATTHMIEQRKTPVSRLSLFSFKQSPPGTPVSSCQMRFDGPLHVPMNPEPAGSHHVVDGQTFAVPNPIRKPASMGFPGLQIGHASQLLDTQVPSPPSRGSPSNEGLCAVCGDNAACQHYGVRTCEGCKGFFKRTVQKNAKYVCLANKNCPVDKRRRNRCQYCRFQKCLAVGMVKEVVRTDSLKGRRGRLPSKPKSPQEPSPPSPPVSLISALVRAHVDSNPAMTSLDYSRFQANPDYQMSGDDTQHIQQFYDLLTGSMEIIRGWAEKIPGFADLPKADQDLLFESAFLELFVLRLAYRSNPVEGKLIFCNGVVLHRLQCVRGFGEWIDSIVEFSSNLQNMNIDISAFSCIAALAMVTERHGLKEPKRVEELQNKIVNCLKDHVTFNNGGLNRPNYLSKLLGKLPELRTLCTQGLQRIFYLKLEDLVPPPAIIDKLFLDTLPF

As for `Clc1ccc2c(NCCN3CCN(c4ccnc(-n5ccnc5)n4)CC3)ccnc2c1` [Formula (II)], the “cage side observation, clinical signs” value with CD-1 mice (CD-1 mice) is recorded as “no abnormalities were observed”. In [1], the AUC(0-t) was 7340 ng·h/mL, the concentration at 0.083 h was 10.7 ng/mL, the concentration at 0.25 h stood at 118 ng/mL and the concentration at 0.5 h worked out at 559 ng/mL. In [1], the concentration at 1 h turned out to be 1180 ng/mL, the concentration at 2 h stood at 1020 ng/mL, the concentration at 4 h amounted to 953 ng/mL and the concentration at 8 h was found to be 294 ng/mL. Moreover, in [1], the concentration at 24 h is 16.8 ng/mL.

On to `Cc1cc(NCCCNc2ccnc3cc(Cl)ccc23)nc(N2CCCC2)n1` [comp. ex. 3], for which, in series [1], the AUC(0-t) was 271 ng·h/mL, the concentration at 0.083 h was determined as 7.71 ng/mL, the concentration at 0.25 h turned out to be 16 ng/mL and the concentration at 0.5 h came to 16.6 ng/mL. Moreover, in [1], the concentration at 1 h amounted to 19.4 ng/mL, the concentration at 2 h came out at 23.3 ng/mL, the concentration at 4 h turned out to be 19.5 ng/mL and the concentration at 8 h is 14.5 ng/mL. For the same compound, the concentration at 24 h in series [1] stood at 3.53 ng/mL.

As to `N[C@@H](Cc1ccc(O)c(O)c1)C(=O)O` [L-DOPA, L-3,4-dihydroxyphenylalanine], in [2], the “olfactory discrimination test (olfaction), sub-acute stage” value is on record as “failed to restore olfaction”; the body weight recovery result is on record as “regained body weight after day 8”; the “cylinder test, rearing numbers, sub-chronic treatment” value was “recovered rearing numbers in the cylinder test”; the “pole test, time to traverse, sub-chronic treatment” value is given as “reduced time to traverse on a pole”. Besides, in [2], the “rotarod latency to fall, sub-chronic treatment” value was “significantly improved motor deficits on the rotarod latency to fall”; the “TH+ DAergic neurons (counting and densitometry)” value is given as “did not show protective effect”; the “dyskinesia in the abnormal involuntary movements (AIMs) test” value is recorded as “developed dyskinesia”; the “olfactory discrimination test (olfaction), chronic treatment” value is listed as “could not recover olfaction even with chronic treatment”. Besides, the “rotarod latency to fall, chronic treatment” value in series [2] is “improved latency to fall on the rotarod on day 15”. Further, the Nurr1-immunoreactive cells entry in [2] (SNpc) is “failed to protect Nurr1 expressions”. For the same compound, the “Iba-1+ microglia numbers” value in [2] (STR and SNpc) is “failed to suppress microglial activation”. In addition, the “velocity during olfactory discrimination” value in series [2] (sub-acute stage) is “hyperactivity indicated as increased velocity”.

For `Cc1cc(NCCCNc2ccnc3cc(Cl)ccc23)nc(N2CCCCC2)n1` [comparative example], in the series on CD-1 mice (CD-1 male mice, 40 mg/kg), the “tolerability at 40 mg/kg” value is “cannot be tolerated well”. Also, the “clinical signs and outcome at 40 mg/kg” value with CD-1 mice (CD-1 mice, 40 mg/kg) is “prone, slightly low temperature and twitched to death on the fourth dosing day”. Further, the “cage side observation, clinical signs” value with CD-1 mice (CD-1 mice) is on record as “weight loss, roach back, rough coat, low temperature, low activity, tremble or/and dying”.

`CO/C1=C\C(C)=C\[C@@H](C)[C@@H](O)[C@@H](C)C/C(C)=C/C=C/[C@H](OC)[C@@H]([C@@H](C)[C@@H](O)[C@H](C)[C@@]2(O)C[C@@H](O)[C@H](C)[C@@H](C(C)C)O2)OC1=O` [BafA1, bafilomycin A1]: the “autophagy process (LC3B, p62)” value with HeLa cells is on record as “induced autophagy initiation but inhibited autophagy process termination”.

In the case of `Cc1cc(NCCCNc2ccnc3cc(Cl)ccc23)nc(N2CCN(C)CC2)n1` [comp. ex. 2], in [1], the AUC(0-t) came to 250 ng·h/mL, the concentration at 0.083 h was determined as 5.15 ng/mL, the concentration at 0.25 h was 6.68 ng/mL and the concentration at 0.5 h is 9.91 ng/mL. For the same compound, in series [1], the concentration at 1 h came to 13.9 ng/mL, the concentration at 2 h was 14.9 ng/mL, the concentration at 4 h stood at 12 ng/mL and the concentration at 8 h is 16.5 ng/mL. In [1], the concentration at 24 h amounted to 5.92 ng/mL.

For the compound `CCN(CC)CCCC(C)Nc1ccnc2cc(Cl)ccc12` (centres unmarked) [CQ, chloroquine], the “LPS- or poly(I:C)-induced pro-inflammatory gene expressions (TNFα, iNOS, IL-1β, IL-6)” value in series [3] is “significantly suppressed LPS- or poly(I:C)-induced pro-inflammatory gene expressions”. In addition, the “transcriptional activities of Nurr1-LBD and full-length Nurr1” value in [4] is reported as “enhanced transcriptional activities”. For the same compound, the “basal Nurr1 expression level compared to VEH” value in the series with N27-A cells [5] is “significantly higher”. The “DAergic gene expressions downregulated by 6-OHDA toxicity” value in series [6] (6-OHDA 20 μM, CQ 20 μM, SPV-94 0.5 μM) was “significant recovery of downregulated DAergic gene expressions”. Also, in series [6] (CQ 20 μM, SPV-94 0.5 μM, vs vehicle), the “mRNA expression levels of DAergic genes (TH, DAT, AADC, VMAT2, c-Ret, Pitx3)” value is listed as “significantly upregulated mRNA expression levels of DAergic genes”. Besides, in series [6] (Nurr1 KD), the “effects on DAergic gene expression in Nurr1 knockdown condition” value is “disappeared”. Moreover, the “cytotoxicity, LDH release assay” value in the series on MN9D cells (500 μM MPP+) is recorded as “reduced cytotoxicity”. Besides, in the series with MN9D cells (CQ 100 μM, SPV-94 1 μM, vs Mock), the “protective effect against MPP+-induced toxicity under Nurr1 overexpression (OE)” value is given as “potentiated protective effects”. Also, on Nurr1-LBD [7], the Ki is 0.0284 µM. For the same compound, at Nurr1-LBD [7] (1,000 nM [3H]-CQ, 0.2 μM Nurr1-LBD, estimated, read-out: half maximal inhibitory concentration (IC50), competition with [3H]-CQ for binding to Nurr1-LBD), the IC50 was 1 µM. The “suppression of TNFα expression compared to LPS only” value with BV2 cells turned out to be 35.53%. Also, the “transcriptional activities of Nurr1-LBD and full-length Nurr1” value in series [8] is listed as “enhanced transcriptional activities”. For the same compound, the “cytotoxicity, LDH assay” value in the series on N27-A cells [9] was “reduced cytotoxicity in LDH assay”. Further, the EC50 at full-length Nurr1 was determined as 50 µM. For the same compound, at Nurr1-LBD [10], the EC50 stood at 50 µM. The “autophagy process (LC3B, p62)” value in the series on HeLa cells is reported as “induced autophagy initiation but inhibited autophagy process termination”. In [2], the body weight recovery entry is on record as “regained body weight after day 8”; the “cylinder test, rearing numbers, sub-chronic treatment” value is “recovered rearing numbers in the cylinder test”; the “pole test, time to traverse, sub-chronic treatment” value was “reduced time to traverse on a pole”; the “rotarod latency to fall, sub-chronic treatment” value is “significantly improved motor deficits on the rotarod latency to fall”. In addition, in [2], the “TH+ DAergic neurons (counting and densitometry)” value was “significantly restored DAergic neurons”; the “dyskinesia in the abnormal involuntary movements (AIMs) test” value is listed as “did not trigger dyskinesia”; the “olfactory discrimination test (olfaction), chronic treatment” value was “significantly recovered olfaction”; the “rotarod latency to fall, chronic treatment” value is on record as “improved latency to fall on the rotarod on day 15”.
